The source of these data is ChEMBL document CHEMBL1152316, “Caryophyllenes from a fungal culture of Chrysosporium pilosum” (2009).

SMILES strings stand for the structures. Converted amounts (≈) assume the structure as drawn. The source made the active and inactive calls.

Experiment [1] deals with Saccharomyces cerevisiae. In words: Antifungal activity against Saccharomyces cerevisiae PM503 assessed as zone of inhibition after 48 hrs. It counts as functional, organism-based.
In experiment [2] the test system is Saccharomyces cerevisiae. In words: Antifungal activity against Saccharomyces cerevisiae PM503 after 48 hrs. It counts as functional. Particulars: PM503, 48 h.

For the molecule `C/C1=C/[C@H](O)C(=O)[C@@H](CO)[C@@H]2CC(C)(C)[C@H]2CC1`, the outcome in the experiment on Saccharomyces cerevisiae [1] was inactive. For `C/C1=C/C(=O)[C@@H](O)[C@@]2(CO2)[C@@H]2CC(C)(C)[C@H]2CC1`, the result in the experiment on Saccharomyces cerevisiae [1] was inactive.

Broadly, the MIC is the smallest concentration in the dilution series that meets the test's criterion for growth inhibition. The low end stands for a more susceptible organism, the high end for a less susceptible organism. Regarding `C/C1=C/C(=O)[C@@H](O)[C@@H](CO)[C@@H]2CC(C)(C)[C@H]2CC1`, the outcome in the experiment with Saccharomyces cerevisiae [1] was inactive. In the experiment on Saccharomyces cerevisiae [2], this molecule registered a minimal inhibitory concentration (MIC) of 60 µg/mL (≈ 238 µM). Regarding `C=C1CC[C@H]2[C@@H](CC2(C)C)[C@H]2CO[C@@](O)(C1)C2=O`, the outcome with Saccharomyces cerevisiae [1] was inactive.
